Reference: patent publication US20090247558A1, “USE OF THE CRH (CORTICOTROPIN RELEASING HORMONE) - UCN (UROCORTIN) SYSTEM IN THE TREATMENT OF INFLAMMATORY DISEASES” (priority 2002, published 2009)
No end group written: not given here.

Legend:
CRH-R2 receptor = target: T1, CRH-R2 receptor (Mus musculus, UniProt Q60748); details: cited from earlier work
T1 construct: monocyte/macrophage cells which express both the CRH-R1 and the CRH-R2 receptors on the surface; endogenous in cells; host or cells: macrophages
T1 sequence (Q60748 whole entry): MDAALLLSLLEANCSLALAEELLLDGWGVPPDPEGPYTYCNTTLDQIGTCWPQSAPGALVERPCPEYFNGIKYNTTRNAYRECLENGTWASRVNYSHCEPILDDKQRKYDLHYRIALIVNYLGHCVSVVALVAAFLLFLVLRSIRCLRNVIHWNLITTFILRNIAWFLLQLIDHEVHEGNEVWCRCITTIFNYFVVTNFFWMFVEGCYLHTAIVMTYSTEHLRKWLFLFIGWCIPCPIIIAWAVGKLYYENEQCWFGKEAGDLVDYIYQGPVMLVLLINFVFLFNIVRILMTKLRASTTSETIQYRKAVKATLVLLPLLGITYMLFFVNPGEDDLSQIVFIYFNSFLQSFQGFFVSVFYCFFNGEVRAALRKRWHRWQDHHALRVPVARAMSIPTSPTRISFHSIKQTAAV

[1] = system: primary bone marrow macrophages; assay: Apoptosis of primary bone marrow macrophages; assay type: cell-based
Procedure: (§1) Cells were plated in 96-well plates at an initial concentration of 10,000 cells per well. Apoptosis was measured by direct determination of nucleosomal DNA fragmentation with the “cell death detection” ELISA plus kit according to the manufacturer's protocol.
(§2) Cells were treated with UCN and/or LPS at the indicated concentrations for different time points, collected in PBS and incubated with 7-amino-actinomycin (7AAD) for 10 minutes. Cells were washed and analyzed by Flow Cytometry (Coulter).

RAW-264.7 macrophages = assay: Apoptosis and proliferation of RAW264.7 macrophages (nucleosome formation, flow cytometry); assay type: cell-based, mouse
Procedure: as §1, §2

RAW264.7 cells = assay: Stress kinase, Bax and Fas Ligand in RAW264.7 cells (Western blot); assay type: cell-based, mouse
Procedure: Following stimulation cells were harvested and lyzed in 62.5 mM Tris HCl pH=6.8, 10% glycerol, 2% SDS, and freshly added inhibitors phenylmethylsulfonyl fluoride (10 μg/ml), 0.5 mM DTT and 50 mM Na2F.

Substance: urocortin (DNPSLSIDLTFHLLRTLLELARTQSQRERAEQNRIIFDSV; ends and bridges not checked; UniProt P55089 83-122, looked up) [UCN]
- apoptosis on macrophages (CRH-R2 receptor): induce apoptosis
- LPS-induced apoptosis [1]: enhanced
- cell proliferation (RAW-264.7 macrophages; cells cultured in the presence of serum): promoted cell proliferation
- apoptosis (RAW-264.7 macrophages; serum-deprived, LPS-induced cells, 10^−9M UCN, 10 μg/ml LPS): promoted apoptosis
- LPS-induced p38MAPK and JNK activation (RAW264.7 cells; UCN plus LPS): enhances
- Bax (RAW264.7 cells; UCN treatment): upregulation
- Fas Ligand expression (RAW264.7 cells; UCN treatment): enhancement
- activation of the stress-induced kinases JNK and p38MAPK (RAW264.7 cells; UCN treatment): rapid activation
